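Briefly, cells in 96-well plates were exposed to five compound concentrations for 48 h, and endpoints were estimated by linear interpolation. GI50 marks 50% less growth.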 Calls of active or inactive are those of the source. Rule as the data show it: active = GI50 up to about 1.1 µM and inactive = higher.
How the values were obtained:
Assay in all cases: NCI-60 cell line screen, 48 h
HT-29 = system: HT-29
RXF 393 = system: RXF 393
SF-268 = system: SF-268
M14 = system: M14
SK-MEL-5 = system: SK-MEL-5
COLO 205 = system: COLO 205
CAKI-1 = system: CAKI-1
U-251 = system: U-251
T47D = system: T47D
HCT-15 = system: HCT-15
UACC-62 = system: UACC-62
DU-145 = system: DU-145
A498 = system: A498
SK-MEL-2 = system: SK-MEL-2
SN12C = system: SN12C
HL-60 = system: HL-60
NCI-H522 = system: NCI-H522
MOLT-4 = system: MOLT-4
MDA-MB-231 = system: MDA-MB-231

Row | Compound | GI50 (HT-29) | GI50 (RXF 393) | GI50 (SF-268) | GI50 (M14) | GI50 (SK-MEL-5) | GI50 (COLO 205) | GI50 (CAKI-1) | GI50 (U-251) | GI50 (T47D) | GI50 (HCT-15) | GI50 (UACC-62) | GI50 (DU-145) | GI50 (A498) | GI50 (SK-MEL-2) | GI50 (SN12C) | GI50 (HL-60) | GI50 (NCI-H522) | GI50 (MOLT-4) | GI50 (MDA-MB-231)
1 | C=C1C(=O)C23C(O)C1CC[C@H]2C12CCCC(C)(COC(C)=O)[C@H]1[C@H](O)[C@]3(O)OC2 (some centres undefined) | 1.8 µM (inactive) | 0.407 µM (active) | 3.19 µM (inactive) | 1.1 µM (active) | 1.72 µM (inactive) | 1.46 µM (inactive) | 1.16 µM (inactive) | 2.21 µM (inactive) | 1.3 µM (inactive) | 0.817 µM | 1.58 µM (inactive) | 4.3 µM (inactive) | 2.32 µM (inactive) | 1.85 µM (inactive) | 1.71 µM (inactive) | 0.279 µM (active) | 0.285 µM (active) | 0.138 µM (active) | –
2 | c1cnc2nc3n(c2c1)CSC3 | > 100 µM (inactive) | > 100 µM (inactive) | > 100 µM (inactive) | > 100 µM (inactive) | > 100 µM (inactive) | > 100 µM (inactive) | > 100 µM (inactive) | > 100 µM (inactive) | – | > 100 µM | > 100 µM (inactive) | – | > 100 µM (inactive) | > 100 µM (inactive) | > 100 µM (inactive) | > 100 µM (inactive) | > 100 µM (inactive) | > 100 µM (inactive) | –
3 | O=C(/C(=C/c1ccccc1)c1ccccc1)N1c2ccccc2CC1c1c[nH]c2ccccc12 (centres undefined) | 76.4 µM (inactive) | 6.07 µM (inactive) | – | 9.18 µM (inactive) | 21.7 µM (inactive) | 6.27 µM (inactive) | 36.1 µM (inactive) | 9.53 µM (inactive) | – | 7.76 µM | > 100 µM (inactive) | – | > 100 µM (inactive) | 6.03 µM (inactive) | 22.2 µM (inactive) | 3.19 µM (inactive) | 7.8 µM (inactive) | 3.33 µM (inactive) | –
4 | CCOC(=O)Cc1[nH]c(C(=O)c2ccccc2)cc1C(=O)c1ccccc1 | > 10 µM (inactive) | 24.3 µM (inactive) | 56.4 µM (inactive) | 88.1 µM (inactive) | 41.8 µM (inactive) | 21.7 µM (inactive) | – | > 100 µM (inactive) | 17.7 µM (inactive) | 68.7 µM | > 100 µM (inactive) | > 10 µM (inactive) | 36.8 µM (inactive) | 39 µM (inactive) | > 100 µM (inactive) | 33.1 µM (inactive) | 52.5 µM (inactive) | 14.8 µM (inactive) | > 10 µM (inactive)
5 | Cc1ccc(S(=O)(=O)N/N=C\c2c3ccccc3[n+](C)c3ccccc23)cc1 | 19.4 µM (inactive) | 15.9 µM (inactive) | 29.2 µM (inactive) | 26 µM (inactive) | 29.4 µM (inactive) | – | 17.7 µM (inactive) | 24 µM (inactive) | – | 25.8 µM | 19.8 µM (inactive) | – | 20.4 µM (inactive) | 43.8 µM (inactive) | 48.6 µM (inactive) | 22 µM (inactive) | 25.8 µM (inactive) | 17.6 µM (inactive) | –
6 | Cc1nc(Nc2ccc(F)cc2)c2sc(=S)n(-c3ccc(F)cc3)c2n1 | 6.17 µM (inactive) | 12.6 µM (inactive) | 11 µM (inactive) | 2.94 µM (inactive) | 14.6 µM (inactive) | 14.5 µM (inactive) | 18.3 µM (inactive) | 14.7 µM (inactive) | 5.31 µM (inactive) | 3.09 µM | 16.1 µM (inactive) | 13.4 µM (inactive) | 16 µM (inactive) | 15.3 µM (inactive) | 14 µM (inactive) | 23.6 µM (inactive) | 16.1 µM (inactive) | – | 13.9 µM (inactive)
7 | COc1ccc2oc(=N)c(C(=O)Nc3ccccn3)cc2c1 | > 100 µM (inactive) | > 100 µM (inactive) | > 100 µM (inactive) | > 100 µM (inactive) | > 100 µM (inactive) | > 100 µM (inactive) | > 100 µM (inactive) | > 100 µM (inactive) | 37 µM (inactive) | > 100 µM | 71.4 µM (inactive) | > 100 µM (inactive) | > 100 µM (inactive) | 23.2 µM (inactive) | > 100 µM (inactive) | > 100 µM (inactive) | – | > 100 µM (inactive) | > 100 µM (inactive)
8 | FC(F)(F)c1nc2ccc3[nH]c4c(-c5ccccc5)nccc4c3c2[nH]1 | > 100 µM (inactive) | > 100 µM (inactive) | > 100 µM (inactive) | > 100 µM (inactive) | > 100 µM (inactive) | > 100 µM (inactive) | > 100 µM (inactive) | > 100 µM (inactive) | – | > 100 µM | > 100 µM (inactive) | – | > 100 µM (inactive) | > 100 µM (inactive) | > 100 µM (inactive) | 97.5 µM (inactive) | > 83.8 µM (inactive) | > 100 µM (inactive) | –

Reference: ChEMBL document CHEMBL1201862, “PubChem BioAssay data set” (2004)
